This note sets out measurements from patent US7361659B2, “Pyrrazolo-pyrimidine derivatives” (Hoffmann-La Roche Inc., priority 2005, dated 2008).

For orientation: melting point means the temperature, or range, at which the solid turns liquid.

Molecules are shown by their SMILES.

The molecule `O=C(Nc1cc(S(=O)(=O)N2CCC(O)C2)sc1Cl)c1cnn2c(C(F)F)cc(-c3ccc(C(F)(F)F)cc3)nc12` (racemic) [Example 66, 7-Difluoromethyl-5-(4-trifluoromethyl-phenyl)-pyrazolo[1,5-a]pyrimidine-3-carboxylic acid [(RS)-2-chloro-5-(3-hydroxy-pyrrolidine-1-sulfonyl)-thiophen-3-yl]-amide] had a melting point of 274 °C.
In turn, `O=C(Nc1cc(S(=O)(=O)N2CCC(O)C2)sc1Cl)c1cnn2c(C(F)(F)F)cc(-c3ccc(C(F)(F)F)cc3)nc12` (racemic) [Example 67, 7-Trifluoromethyl-5-(4-trifluoromethyl-phenyl)-pyrazolo[1,5-a]pyrimidine-3-carboxylic acid [(RS)-2-chloro-5-(3-hydroxy-pyrrolidine-1-sulfonyl)-thiophen-3-yl]-amide] showed a melting point of 270 °C.
In the case of `Cc1nc(NC(=O)c2cnn3c(C(F)(F)F)cc(-c4ccc(C(F)(F)F)cc4)nc23)sc1S(=O)(=O)N1CCC(O)C1` (racemic) [Example 76, 7-Trifluoromethyl-5-(4-trifluoromethyl-phenyl)-pyrazolo[1,5-a]pyrimidine-3-carboxylic acid [(RS)-5-(3-hydroxy-pyrrolidine-1-sulfonyl)-4-methyl-thiazol-2-yl]-amide] it was 300 °C; in that of `NS(=O)(=O)c1cc(NC(=O)c2cnn3c(C(F)F)cc(-c4ccc(C(F)(F)F)cc4)nc23)c(Cl)s1` [Example 1, 7-Difluoromethyl-5-(4-trifluoromethyl-phenyl)-pyrazolo[1,5-a]pyrimidine-3-carboxylic-acid (2-chloro-5-sulfamoyl-thiophen-3-yl)-amide], 298 °C.
The same measure for `NS(=O)(=O)c1nnc(NC(=O)c2cnn3c(C(F)(F)F)cc(-c4ccc(C(F)(F)F)cc4)nc23)s1` [Example 4, 7-Trifluoromethyl-5-(4-trifluoromethyl-phenyl)-pyrazolo[1,5-a]pyrimidine-3-carboxylic acid (5-sulfamoyl-[1,3,4]thiadiazol-2-yl)-amide]: 280 °C; for `CC(C)(CO)NS(=O)(=O)c1cc(NC(=O)c2cnn3c(C(F)F)cc(-c4ccc(C(F)(F)F)cc4)nc23)c(Cl)s1` [Example 5, 7-Difluoromethyl-5-(4-trifluoromethyl-phenyl)-pyrazolo[1,5-a]pyrimidine-3-carboxylic acid [2-chloro-5-(2-hydroxy-1,1-dimethyl-ethylsulfamoyl)-thiophen-3-yl]-amide]: 233 °C.
`Cc1nc(NC(=O)c2cnn3c(C(F)F)cc(-c4ccc(C(F)(F)F)cc4)nc23)sc1S(N)(=O)=O` [Example 7, 7-Difluoromethyl-5-(4-trifluoromethyl-phenyl)-pyrazolo[1,5-a]pyrimidine-3-carboxylic acid (4-methyl-5-sulfamoyl-thiazol-2-yl)-amide] returned a melting point of 284 °C.
In the case of `NS(=O)(=O)c1cc(NC(=O)c2cnn3c(C(F)(F)F)cc(-c4ccc(Cl)cc4)nc23)c(Cl)s1` [Example 9, 5-(4-Chloro-phenyl)-7-trifluoromethyl-pyrazolo[1,5-a]pyrimidine-3-carboxylic acid (2-chloro-5-sulfamoyl-thiophen-3-yl)-amide] it was 329 °C; in that of `CCOc1cc(-c2cc(C(F)(F)F)n3ncc(C(=O)Nc4cc(S(N)(=O)=O)sc4Cl)c3n2)ccc1C(F)(F)F` [Example 10, 5-(3-Ethoxy-4-trifluoromethyl-phenyl)-7-trifluoromethyl-pyrazolo[1,5-a]pyrimidine-3-carboxylic acid (2-chloro-5-sulfamoyl-thiophen-3-yl)-amide], 281 °C; in that of `Cc1cc(-c2cc(C(F)(F)F)n3ncc(C(=O)Nc4cc(S(N)(=O)=O)sc4Cl)c3n2)ccc1C(F)(F)F` [Example 11, 5-(3-Methyl-4-trifluoromethyl-phenyl)-7-trifluoromethyl-pyrazolo[1,5-a]pyrimidine-3-carboxylic acid (2-chloro-5-sulfamoyl-thiophen-3-yl)-amide], 283 °C.
Consider `CC(C)(CO)NS(=O)(=O)c1cc(NC(=O)c2cnn3c(C(F)(F)F)cc(-c4ccc(Cl)cc4)nc23)c(Cl)s1` [Example 12, 5-(4-Chloro-phenyl)-7-trifluoromethyl-pyrazolo[1,5-a]pyrimidine-3-carboxylic acid [2-chloro-5-(2-hydroxy-1,1-dimethyl-ethylsulfamoyl)-thiophen-3-yl]-amide], for which the melting point was 272 °C.
In the case of `Cc1nc(NC(=O)c2cnn3c(C(F)(F)F)cc(-c4ccc(C(F)(F)F)cc4)nc23)sc1S(=O)(=O)NC(C)(C)CO` [Example 13, 7-Trifluoromethyl-5-(4-trifluoromethyl-phenyl)-pyrazolo[1,5-a]pyrimidine-3-carboxylic acid [5-(2-hydroxy-1,1-dimethyl-ethylsulfamoyl)-4-methyl-thiazol-2-yl]-amide] it was 257 °C; in that of `Cc1nc(NC(=O)c2cnn3c(C(F)F)cc(-c4ccc(C(F)(F)F)cc4)nc23)sc1S(=O)(=O)NC(C)(C)CO` [Example 14, 7-Difluoromethyl-5-(4-trifluoromethyl-phenyl)-pyrazolo[1,5-a]pyrimidine-3-carboxylic acid [5-(2-hydroxy-1,1-dimethyl-ethylsulfamoyl)-4-methyl-thiazol-2-yl]-amide], 268 °C; in that of `CCOc1cc(-c2cc(C(F)(F)F)n3ncc(C(=O)Nc4cc(S(=O)(=O)NC(C)(C)CO)sc4Cl)c3n2)ccc1C(F)(F)F` [Example 15, 5-(3-Ethoxy-4-trifluoromethyl-phenyl)-7-trifluoromethyl-pyrazolo[1,5-a]pyrimidine-3-carboxylic acid [2-chloro-5-(2-hydroxy-1,1-dimethyl-ethylsulfamoyl)-thiophen-3-yl]-amide], 234 °C.
In the case of `Cc1cc(-c2cc(C(F)(F)F)n3ncc(C(=O)Nc4cc(S(=O)(=O)NC(C)(C)CO)sc4Cl)c3n2)ccc1C(F)(F)F` [Example 16, 5-(3-Methyl-4-trifluoromethyl-phenyl)-7-trifluoromethyl-pyrazolo[1,5-a]pyrimidine-3-carboxylic acid [2-chloro-5-(2-hydroxy-1,1-dimethyl-ethylsulfamoyl)-thiophen-3-yl]-amide] it was 207 °C; in that of `CC(C)(CO)NS(=O)(=O)c1cc(NC(=O)c2cnn3c(C(F)(F)F)cc(-c4ccc(C(F)(F)F)c(OCC(F)(F)F)c4)nc23)c(Cl)s1` [Example 17, 5-[3-(2,2,2-Trifluoro-ethoxy)-4-trifluoromethyl-phenyl]-7-trifluoromethyl-pyrazolo[1,5-a]pyrimidine-3-carboxylic acid [2-chloro-5-(2-hydroxy-1,1-dimethyl-ethylsulfamoyl)-thiophen-3-yl]-amide], 264 °C; in that of `Cc1nc(NC(=O)c2cnn3c(C(F)(F)F)cc(-c4ccc(Cl)cc4)nc23)sc1S(N)(=O)=O` [Example 19, 5-(4-Chloro-phenyl)-7-trifluoromethyl-pyrazolo[1,5-a]pyrimidine-3-carboxylic acid (4-methyl-5-sulfamoyl-thiazol-2-yl)-amide], 305 °C.
In the case of `CCOc1cc(-c2cc(C(F)(F)F)n3ncc(C(=O)Nc4nc(C)c(S(N)(=O)=O)s4)c3n2)ccc1C(F)(F)F` [Example 20, 5-(3-Ethoxy-4-trifluoromethyl-phenyl)-7-trifluoromethyl-pyrazolo[1,5-a]pyrimidine-3-carboxylic acid (4-methyl-5-sulfamoyl-thiazol-2-yl)-amide] it was 300 °C; in that of `Cc1cc(-c2cc(C(F)(F)F)n3ncc(C(=O)Nc4nc(C)c(S(N)(=O)=O)s4)c3n2)ccc1C(F)(F)F` [Example 21, 5-(3-Methyl-4-trifluoromethyl-phenyl)-7-trifluoromethyl-pyrazolo[1,5-a]pyrimidine-3-carboxylic acid (4-methyl-5-sulfamoyl-thiazol-2-yl)-amide], 309 °C; in that of `CCOc1cc(-c2cc(C(F)(F)F)n3ncc(C(=O)Nc4nc(C)c(S(=O)(=O)NC(C)(C)CO)s4)c3n2)ccc1C(F)(F)F` [Example 23, 5-(3-Ethoxy-4-trifluoromethyl-phenyl)-7-trifluoromethyl-pyrazolo[1,5-a]pyrimidine-3-carboxylic acid [5-(2-hydroxy-1,1-dimethyl-ethylsulfamoyl)-4-methyl-thiazol-2-yl]-amide], 276 °C.
`Cc1nc(NC(=O)c2cnn3c(C(F)(F)F)cc(-c4ccc(C(F)(F)F)c(Cl)c4)nc23)sc1S(N)(=O)=O` [Example 25, 5-(3-Chloro-4-trifluoromethyl-phenyl)-7-trifluoromethyl-pyrazolo[1,5-a]pyrimidine-3-carboxylic acid (4-methyl-5-sulfamoyl-thiazol-2-yl)-amide] returned a melting point of 299 °C.
The same measure for `Cc1nc(NC(=O)c2cnn3c(C(F)(F)F)cc(-c4ccc(Cl)c(Cl)c4)nc23)sc1S(N)(=O)=O` [Example 26, 5-(3,4-Dichloro-phenyl)-7-trifluoromethyl-pyrazolo[1,5-a]pyrimidine-3-carboxylic acid (4-methyl-5-sulfamoyl-thiazol-2-yl)-amide]: 307 °C; for `Cc1nc(NC(=O)c2cnn3c(C(F)(F)F)cc(-c4ccc(C(F)(F)F)c(OCC(F)(F)F)c4)nc23)sc1S(N)(=O)=O` [Example 27, 5-[3-(2,2,2-Trifluoro-ethoxy)-4-trifluoromethyl-phenyl]-7-trifluoromethyl-pyrazolo[1,5-a]pyrimidine-3-carboxylic acid (4-methyl-5-sulfamoyl-thiazol-2-yl)-amide]: 264 °C; for `O=C(Nc1cc(S(=O)(=O)NC(CO)CO)sc1Cl)c1cnn2c(C(F)F)cc(-c3ccc(C(F)(F)F)cc3)nc12` [Example 28, 7-Difluoromethyl-5-(4-trifluoromethyl-phenyl)-pyrazolo[1,5-a]pyrimidine-3-carboxylic acid [2-chloro-5-(2-hydroxy-1-hydroxymethyl-ethylsulfamoyl)-thiophen-3-yl]-amide]: 241 °C.
`O=C(Nc1cc(S(=O)(=O)NC(CO)CO)sc1Cl)c1cnn2c(C(F)(F)F)cc(-c3ccc(C(F)(F)F)cc3)nc12` [Example 29, 7-Trifluoromethyl-5-(4-trifluoromethyl-phenyl)-pyrazolo[1,5-a]pyrimidine-3-carboxylic acid [2-chloro-5-(2-hydroxy-1-hydroxymethyl-ethylsulfamoyl)-thiophen-3-yl]-amide]: the melting point came out at 225 °C.
